Key:
Type in all cases: physicochemical
[1] = Solid form stability on heating (XRPD, hot stage microscopy); details: hydrochloride salt trihydrate
Experimental: Amorphous material was generated through ball milling in the experiments with the goal to obtain a new crystalline form. […] Pattern D was determined to be a channel trihydrate, the form identification was confirmed by Single Crystal XRD.
FIG. 5 is an overlay of XRPD spectra of Pattern D heated to 90° C. and cooled back to room temperature; Pattern D heated to 150° C. and cooled back to room temperature; as well as Pattern C and Pattern D reference spectra.
FIG. 6 is an image of Pattern D heated to different temperatures obtained using hot stage microscopy (HSM).

[2] = Water solubility of crystalline forms measured by HPLC
Experimental: Water solubility of Pattern D was measured by HPLC to determine how much the water solubility drops between Pattern C and Pattern D. To measure the solubility of Pattern D in H2O, ˜150 mg of Pattern D was slurried for 2 weeks at RT in 1 mL of H2O.

[3] = Dynamic Vapor Sorption (DVS) on Pattern D

**Q.** With CC(C)(C)NC(=O)CN1CCC(CNC(=O)c2cc(F)cc(Cl)c2)CC1.Cl [Pattern D, N-((1-(2-(tert-butylamino)-2-oxoethyl)piperidin-4-yl)methyl)-3-chloro-5-fluorobenzamide hydrochloride salt trihydrate] as the compound, how does the “form conversion on heating (XRPD)” value ([1]; heated to 90° C. and cooled back to room temperature) read?
**A.** Its value is “no form conversion”.

**Q.** And the “form on further heating (XRPD)” value ([1]; heated to 150° C. and cooled back to room temperature)?
**A.** Its value is “turns amorphous”.

**Q.** What about the “form conversion after slurry in H2O (XRPD)” value ([2]; 2-week slurry in H2O at RT) of the same compound?
**A.** Its value is “no form conversion”.

**Q.** What about the solubility at 2 weeks ([2]; water, thermodynamic from solid) of the same compound?
**A.** Its solubility at 2 weeks is 77.2 mg/mL.

**Q.** And the “mass gained in DVS” value ([3]; at 80% RH)?
**A.** The value was roughly 10.45%.

**Q.** What about the “water re-adsorbed after desolvation in DVS” value ([3]; by RH of 20%, after loss of moisture at RH close to 0) of the same compound?
**A.** The value was “approximately 10.5%”.

**Q.** And the “form change post DVS (XRPD)” value ([3]; post DVS)?
**A.** The value was “no clear form change”.
